The nature of data set [1]: Cytotoxicity assay. The data set is classed as cell-based. The note with it: human, TZM-bl cells.
Data set [2] is described as follows: Cytotoxicity assay. To be noted: human, CEM cells (T-lymphoblast leukemia). The class given is cell-based, human.
In the next data set the target is hCXCR4 (Homo sapiens, UniProt P61073). As to the kind of experiment: Radioligand [125I]SDF-1α binding to hCXCR4-transfected HEK293 membrane. To be noted: for fold increase in CXCR4 binding affinity compared to compound 4: relative to compound 4.
Chain of hCXCR4 (P61073 whole entry): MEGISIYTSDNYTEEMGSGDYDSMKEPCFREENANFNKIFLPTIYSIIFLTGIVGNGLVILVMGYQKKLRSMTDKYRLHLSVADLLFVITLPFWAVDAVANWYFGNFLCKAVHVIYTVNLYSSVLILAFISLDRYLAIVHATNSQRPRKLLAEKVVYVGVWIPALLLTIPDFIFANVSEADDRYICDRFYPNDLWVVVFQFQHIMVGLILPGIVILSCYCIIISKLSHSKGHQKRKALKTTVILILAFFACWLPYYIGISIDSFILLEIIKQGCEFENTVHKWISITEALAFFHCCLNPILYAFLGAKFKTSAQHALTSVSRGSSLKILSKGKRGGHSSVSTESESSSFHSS

Bounds are passed on as bounds.

In general, CC50 refers to the concentration that lowers cell viability or growth by half. For `COc1ccc2nc(NCc3ccc(CNCCCNC4CCCCC4)cc3)nc(NC3CCNCC3)c2c1` [Compound 9, N^2-{4-[(3-Cyclohexylamino-propylamino)-methyl]-benzyl}-6-methoxy-N^4-piperidin-4-yl-quinazoline-2,4-diamine], in the data set “Cytotoxicity assay [1]”, the CC50 at 72 h came to 8.4 ± 1 µM and the selectivity ratio at 72 h came out at 177. For the same compound, in “Cytotoxicity assay [2]”, half-maximal cytotoxicity (CC50 at 72 h) was put at 8 ± 1.7 µM and the selectivity ratio at 72 h came out at 169. The “fold increase in CXCR4 binding affinity compared to compound 4” value (“fold increase in CXCR4 binding affinity” for short) on hCXCR4 is 4−5 fold.

In the case of `COc1ccc2c(NC3CCNCC3)nc(NCc3ccc(CNCCCNC4CCCCC4)cc3)nc2c1` [Compound 10, N^2-{4-[(3-Cyclohexylamino-propylamino)-methyl]-benzyl}-7-methoxy-N^4-piperidin-4-yl-quinazoline-2,4-diamine], the CC50 at 72 h in “Cytotoxicity assay [1]” was 10.8 ± 3.3 µM; in “Cytotoxicity assay [2]”, 1.6 ± 0.6 µM. The selectivity ratio at 72 h in “Cytotoxicity assay [1]” was 1260; in “Cytotoxicity assay [2]” it was 186. The “fold increase in CXCR4 binding affinity” value at hCXCR4 was 4−5 fold.

For the compound `COc1cc2nc(NCc3ccc(CNCCCNC4CCCCC4)cc3)nc(NC3CCNCC3)c2cc1OC` [Compound 11, N^2-{4-[(3-Cyclohexylamino-propylamino)-methyl]-benzyl}-6,7-dimethoxy-N^4-piperidin-4-yl-quinazoline-2,4-diamine], in the data set “Cytotoxicity assay [1]”, half-maximal cytotoxicity (CC50 at 72 h) was put at 23.1 ± 7 µM and the selectivity ratio at 72 h came to 1060. In “Cytotoxicity assay [2]”, half-maximal cytotoxicity (CC50 at 72 h) was put at 17.5 ± 2.4 µM and the selectivity ratio at 72 h worked out at 806.

Consider `COc1ccc2nc(NCc3ccc(CNCCCNC4CCCCCC4)cc3)nc(NC3CCNCC3)c2c1` [Compound 12, N^2-{4-[(3-Cycloheptylamino-propylamino)-methyl]-benzyl}-6-methoxy-N^4-piperidin-4-yl-quinazoline-2,4-diamine], for which, in “Cytotoxicity assay [1]”, the CC50 at 72 h came out at 21.7 ± 7 µM and the selectivity ratio at 72 h worked out at 509. Besides, in “Cytotoxicity assay [2]”, it took 6.5 ± 1.1 µM to reach half-maximal cytotoxicity (CC50 at 72 h) and the selectivity ratio at 72 h amounted to 153. On hCXCR4, the “fold increase in CXCR4 binding affinity” value was 4−5 fold.

With `COc1ccc2c(NC3CCNCC3)nc(NCc3ccc(CNCCCNC4CCCCCC4)cc3)nc2c1` [Compound 13, N^2-{4-[(3-Cycloheptylamino-propylamino)-methyl]-benzyl}-7-methoxy-N^4-piperidin-4-yl-quinazoline-2,4-diamine], the results for the CC50 at 72 h in “Cytotoxicity assay [1]” and in the data set “Cytotoxicity assay [2]” were 10.8 ± 0.8 µM and 6.1 ± 1.1 µM, respectively. Besides, the results for the selectivity ratio at 72 h in the data set “Cytotoxicity assay [1]” and in “Cytotoxicity assay [2]” were 238 and 134, respectively. The “fold increase in CXCR4 binding affinity” value at hCXCR4 is on record as 4−5 fold.

For the compound `COc1cc2nc(NCc3ccc(CNCCCN4CCCCC4)cc3)nc(NC3CCNCC3)c2cc1OC` [Compound 17, 6,7-Dimethoxy-N^4-piperidin-4-yl-N^2-{4-[(3-piperidin-1-yl-propylamino)-methyl]-benzyl}-quinazoline-2,4-diamine], in the data set “Cytotoxicity assay [1]”, the CC50 at 72 h worked out at 28.1 ± 1.5 µM and the selectivity ratio at 72 h was 1070. Besides, in “Cytotoxicity assay [2]”, the cytotoxic concentration (CC50) at 72 h was 17.6 ± 3 µM and the selectivity ratio at 72 h was 672.

Take `c1nc2c(NCc3ccc(CNCCCNC4CCCCC4)cc3)nc(N3CCNCC3)nc2[nH]1` [Compound 18, N-Cyclohexyl-N′-{4-[(2-piperazin-1-yl-9H-purin-6-ylamino)-methyl]-benzyl}-propane-1,3-diamine]: in the data set “Cytotoxicity assay [1]”, the 50% cytotoxic concentration (CC50) at 72 h is above 50 µM and the selectivity ratio at 72 h is above 25000. In the data set “Cytotoxicity assay [2]”, the CC50 at 72 h was above 50 µM and the selectivity ratio at 72 h was above 25000.

As to `Cn1cnc2c(NCc3ccc(CNCCCNC4CCCCC4)cc3)nc(N3CCNCC3)nc21` [Compound 19, N-Cyclohexyl-N′-{4-[(9-methyl-2-piperazin-1-yl-9H-purin-6-ylamino)-methyl]-benzyl}-propane-1,3-diamine], in the data set “Cytotoxicity assay [1]”, it took 18.6 ± 2 µM to reach half-maximal cytotoxicity (CC50 at 72 h) and the selectivity ratio at 72 h is 5470. Also, in “Cytotoxicity assay [2]”, the 50% cytotoxic concentration (CC50) at 72 h turned out to be 20.2 ± 1.5 µM and the selectivity ratio at 72 h came to 5940. Further, on hCXCR4 (relative to compound 18), the “fold decrease in CXCR4 binding affinity compared to compound 18” value is recorded as 4−5 fold.
